Assays:
[1] = AUC (0 to 24 hrs) in Wistar rat plasma at 100 mg/kg, ip; type: ADME, organism-based; parameters: time < 24 hr, dose 100 mg/kg, route intraperitoneal
[2] = Plasma concentration in Wistar rat plasma at 100 mg/kg, ip at 2 hrs; type: ADME, organism-based; parameters: dose 100 mg/kg, route intraperitoneal
[3] = Cmax in Wistar rat at 100 mg/kg, ip by LC/MS/MS analysis; type: ADME, organism-based; parameters: dose 100 mg/kg, route intraperitoneal; settings: in vivo
[4] = target: 2-oxoglutarate receptor 1 (Homo sapiens, UniProt Q96P68); assay: Antagonist activity at human GPR99 receptor expressed in CHO-K1 cells co-expressing Galpha and Gqi5 G-protein assessed as inhibition of succinate-induced increase in intracellular calcium level at by FLIPR assay; type: functional, cell-based
[5] = Plasma clearance in Wistar rat at 3 mg/kg, iv; type: ADME, organism-based; parameters: dose 3 mg/kg, route intravenous
[6] = tested on: Rattus norvegicus; assay: Hypotensive activity in Wistar rat assessed as inhibition of succinate-induced increase in mean arterial pressure at 100 mg/kg, ip after 4 hrs post dose; type: functional; settings: Artery, route intraperitoneal
[7] = Plasma protein binding in Wistar rat at 100 mg/kg, ip; type: ADME, organism-based; parameters: dose 100 mg/kg, route intraperitoneal; settings: read-out: PPB
[8] = Tmax in Wistar rat at 100 mg/kg, ip; type: ADME, organism-based; parameters: dose 100 mg/kg, route intraperitoneal; settings: in vivo
[9] = Cmax in Wistar rat at 3 mg/kg, iv by LC/MS/MS analysis; type: ADME, organism-based; parameters: dose 3 mg/kg, route intravenous; settings: in vivo
[10] = Terminal half life in Wistar rat at 3 mg/kg, iv; type: ADME, organism-based; parameters: dose 3 mg/kg, route intravenous; settings: in vivo, read-out: beta t1/2 (converted)
[11] = Plasma concentration in Wistar rat plasma at 100 mg/kg, ip at 8 hrs; type: ADME, organism-based; parameters: dose 100 mg/kg, route intraperitoneal
[12] = tested on: Rattus norvegicus; assay: Hypotensive activity in Wistar rat assessed as inhibition of succinate-induced increase in mean arterial pressure at 100 mg/kg, ip after 2 hrs post dose; type: functional; settings: Artery, route intraperitoneal
[13] = Volume of distribution at steady state in Wistar rat at 3 mg/kg, iv; type: ADME, organism-based; parameters: dose 3 mg/kg, route intravenous; settings: in vivo, read-out: Vdss
[14] = target: T1, Succinate receptor 1 (Homo sapiens, UniProt Q9BXA5); assay: Antagonist activity at human GPR91 receptor expressed in CHO-K1 cells co-expressing Galpha and Gqi5 G-protein assessed as inhibition of succinate-induced increase in intracellular calcium level by FLIPR assay; type: functional, cell-based
T1 sequence (Q9BXA5 whole entry): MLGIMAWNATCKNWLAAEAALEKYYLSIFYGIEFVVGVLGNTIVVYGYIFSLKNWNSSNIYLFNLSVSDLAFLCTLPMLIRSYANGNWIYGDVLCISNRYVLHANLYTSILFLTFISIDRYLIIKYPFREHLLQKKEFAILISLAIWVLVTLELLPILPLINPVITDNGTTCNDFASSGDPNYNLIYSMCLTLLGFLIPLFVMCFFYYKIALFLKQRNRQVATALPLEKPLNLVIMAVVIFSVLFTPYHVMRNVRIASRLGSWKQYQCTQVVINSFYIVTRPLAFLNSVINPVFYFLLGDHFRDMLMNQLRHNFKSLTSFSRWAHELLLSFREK

[15] = tested on: Kidney; assay: Drug concentration in Wistar rat kidney at 100 mg/kg, ip; type: ADME, organism-based; parameters: dose 100 mg/kg, route intraperitoneal; settings: in vivo, read-out: Drug uptake
[16] = Plasma concentration in Wistar rat plasma at 100 mg/kg, ip at 4 hrs; type: ADME, organism-based; parameters: dose 100 mg/kg, route intraperitoneal
[17] = tested on: Liver microsomes; assay: Intrinsic clearance in rat liver microsomes preincubated for 5 mins before addition of NADPH measured after 30 mins by LC/MS/MS analysis; type: ADME, Microsome; settings: 0.5 h

Sequence of 2-oxoglutarate receptor 1 (Q96P68 whole entry, looked up): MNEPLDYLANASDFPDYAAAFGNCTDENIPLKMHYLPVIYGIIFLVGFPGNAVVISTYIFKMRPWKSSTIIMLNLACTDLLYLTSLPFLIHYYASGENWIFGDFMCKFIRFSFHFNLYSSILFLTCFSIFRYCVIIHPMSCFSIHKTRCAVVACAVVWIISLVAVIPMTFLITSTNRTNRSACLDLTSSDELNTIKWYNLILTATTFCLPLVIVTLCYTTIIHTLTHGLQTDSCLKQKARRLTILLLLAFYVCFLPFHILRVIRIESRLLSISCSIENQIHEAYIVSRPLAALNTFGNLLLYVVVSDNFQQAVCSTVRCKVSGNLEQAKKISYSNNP

AUC(0-t) at 24 h [1]: 4.3 µM·h
concentration at 2 h [2]: 240 nM
Cmax [3]: 400 nM
IC50 [4]: > 30000 nM
clearance [5]: 36 mL/min/kg
fraction unbound [7]: 0.01
Tmax [8]: 4.9 h
Cmax [9]: 9800 nM
half-life [10]: 0.9 h
concentration at 8 h [11]: 280 nM
Vd [13]: 1 L/kg
IC50 [14]: 7 nM
concentration [15]: 8000 nM
concentration at 4 h [16]: 330 nM
Intrinsic clearance [17]: 0.2 nmol/min/mg
SMILES: C[C@H](NC(=O)Cc1ccc(-c2ccc3cccnc3n2)cc1)c1ccc(-c2ccc(F)c(C(F)(F)F)c2)cc1
inhibition in vivo at 100 mg/kg [6]: 76%
inhibition in vivo at 100 mg/kg [12]: 59%
